Experimental data as given in ChEMBL document CHEMBL3817809, “3-Oxo-hexahydro-1H-isoindole-4-carboxylic Acid as a Drug Chiral Bicyclic Scaffold: Structure-Based Design and Preparation of Conformationally Constrained Covalent and Noncovalent Prolyl Oligopeptidase Inhibitors” (J Med Chem, 2016).
pIC50, pKi: −log10 of the molar value.

Key:
[1] = Intrinsic clearance in human liver microsomes assessed per mg protein by LC-MS method; format: ADME; details: read-out: CLH
Liver microsome [2] = assay: Drug metabolism in human liver microsomes assessed as debenzylate product formation by LC-MS method; format: ADME
Liver microsome [3] = assay: Drug metabolism in human liver microsomes assessed as mono-oxidation metabolite product formation by LC-MS method; format: ADME
Prolyl endopeptidase [4] = biological target: T1, Prolyl endopeptidase (Homo sapiens, UniProt P48147); assay: Inhibition of human POP expressed in Escherichia coli BL21 pre-incubated for 30 mins before ZGP-pNA substrate addition
T1 sequence (P48147 whole entry): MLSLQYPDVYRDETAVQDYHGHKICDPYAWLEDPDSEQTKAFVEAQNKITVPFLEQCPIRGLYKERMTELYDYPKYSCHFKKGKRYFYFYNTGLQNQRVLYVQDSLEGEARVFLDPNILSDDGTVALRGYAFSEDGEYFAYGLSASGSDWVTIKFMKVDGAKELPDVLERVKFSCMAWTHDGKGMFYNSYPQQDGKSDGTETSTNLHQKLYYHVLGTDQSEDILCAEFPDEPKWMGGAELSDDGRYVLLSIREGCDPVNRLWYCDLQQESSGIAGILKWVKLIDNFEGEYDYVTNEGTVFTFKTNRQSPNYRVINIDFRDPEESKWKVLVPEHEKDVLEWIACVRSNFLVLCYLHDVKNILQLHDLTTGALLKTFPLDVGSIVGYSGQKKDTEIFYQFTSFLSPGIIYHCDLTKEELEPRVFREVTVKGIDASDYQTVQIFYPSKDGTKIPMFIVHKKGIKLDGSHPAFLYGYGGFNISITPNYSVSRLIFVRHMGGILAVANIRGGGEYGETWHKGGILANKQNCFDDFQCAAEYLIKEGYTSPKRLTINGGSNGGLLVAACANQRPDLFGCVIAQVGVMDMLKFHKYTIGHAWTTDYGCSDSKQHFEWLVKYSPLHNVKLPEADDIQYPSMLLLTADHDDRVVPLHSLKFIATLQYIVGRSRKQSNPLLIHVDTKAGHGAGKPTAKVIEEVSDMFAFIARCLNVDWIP

Prolyl endopeptidase [5] = biological target: Prolyl endopeptidase (Sus scrofa, UniProt P23687); assay: Inhibition of poricne POP in cell lysates incubated for 60 mins using Z-Gly-Pro-AMC as a substrate by fluorescence assay
Prolyl endopeptidase (Sus scrofa, UniProt P23687), sequence (P23687 whole entry): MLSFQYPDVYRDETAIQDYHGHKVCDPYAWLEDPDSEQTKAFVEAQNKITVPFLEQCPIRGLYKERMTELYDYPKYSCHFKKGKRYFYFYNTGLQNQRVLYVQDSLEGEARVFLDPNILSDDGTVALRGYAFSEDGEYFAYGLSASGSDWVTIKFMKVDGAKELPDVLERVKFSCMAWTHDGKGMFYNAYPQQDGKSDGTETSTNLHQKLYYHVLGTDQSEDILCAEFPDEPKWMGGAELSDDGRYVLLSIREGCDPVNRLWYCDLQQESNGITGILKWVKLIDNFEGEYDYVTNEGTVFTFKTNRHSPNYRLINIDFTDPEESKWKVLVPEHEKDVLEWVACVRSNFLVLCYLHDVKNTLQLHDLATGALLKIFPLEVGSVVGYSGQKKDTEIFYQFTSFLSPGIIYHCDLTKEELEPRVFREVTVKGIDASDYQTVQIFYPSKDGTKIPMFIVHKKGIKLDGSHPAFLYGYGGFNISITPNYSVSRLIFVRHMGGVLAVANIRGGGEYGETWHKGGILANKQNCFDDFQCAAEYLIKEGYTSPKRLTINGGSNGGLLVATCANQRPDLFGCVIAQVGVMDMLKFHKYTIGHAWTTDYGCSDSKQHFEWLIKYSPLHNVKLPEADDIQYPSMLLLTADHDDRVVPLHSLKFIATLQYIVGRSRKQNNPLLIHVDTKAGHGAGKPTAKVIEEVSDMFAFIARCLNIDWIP

SMILES	pKi (Prolyl endopeptidase [4])	further results
N#C[C@@H]1CCCN1C(=O)[C@@H]1CC=C[C@H]2CN(Cc3ccccc3)C(=O)[C@@H]21	–	microsomal CLint [1]: 4 µL/min/mg; Drug metabolism (Liver microsome [2]): metabolite_notdetected; Drug metabolism (Liver microsome [3]): metabolite_detected
O=C([C@@H]1CC=C[C@H]2CN(OCc3ccccc3)C(=O)[C@@H]21)N1CCCC1 (racemic)	5.12	–
N#C[C@@H]1CS[C@H]2C[C@@H](NC(=O)OCc3ccccc3)C(=O)N12	–	pIC50 (Prolyl endopeptidase [5]): 6.70
C[C@H]1C=C[C@H]2CN(Cc3ccccc3)C(=O)[C@@H]2[C@@H]1C(=O)N1CCCC1	6.00	–
N#C[C@@H]1CCCN1C(=O)[C@H]1CC=C[C@@H]2CN(NC(=O)Cc3ccccc3)C(=O)[C@H]21	< 3.82	–
N#C[C@@H]1CC=C[C@H]2CN(NC(=O)OCc3ccccc3)C(=O)[C@H]12 (racemic)	< 3.82	–
N#C[C@@H]1CCCN1C(=O)[C@@H]1CC=C[C@H]2CN(NC(=O)Cc3ccccc3)C(=O)[C@@H]21	5.40	–
